Test results taken from paper PMC10254045, “Elaboration of the Effective Multi-Target Therapeutic Platform for the Treatment of Alzheimer’s Disease Based on Novel Monoterpene-Derived Hydroxamic Acids” (International Journal of Molecular Sciences, 2023).

Experiments:
HDAC6 = biological target: T1, HDAC6 (Homo sapiens, UniProt Q9UBN7); test: Fluorimetric measurement of HDAC6 activity (FLUOR DE LYS kit); format: biochemical; details: for IC50: Table 1, read-out: HDAC6-Inhibitory Effect, IC50; for ability to inhibit the enzymatic activity of HDAC6: in words
T1 construct: purchased Enzo Life Sciences
T1 sequence (Q9UBN7 1-1215): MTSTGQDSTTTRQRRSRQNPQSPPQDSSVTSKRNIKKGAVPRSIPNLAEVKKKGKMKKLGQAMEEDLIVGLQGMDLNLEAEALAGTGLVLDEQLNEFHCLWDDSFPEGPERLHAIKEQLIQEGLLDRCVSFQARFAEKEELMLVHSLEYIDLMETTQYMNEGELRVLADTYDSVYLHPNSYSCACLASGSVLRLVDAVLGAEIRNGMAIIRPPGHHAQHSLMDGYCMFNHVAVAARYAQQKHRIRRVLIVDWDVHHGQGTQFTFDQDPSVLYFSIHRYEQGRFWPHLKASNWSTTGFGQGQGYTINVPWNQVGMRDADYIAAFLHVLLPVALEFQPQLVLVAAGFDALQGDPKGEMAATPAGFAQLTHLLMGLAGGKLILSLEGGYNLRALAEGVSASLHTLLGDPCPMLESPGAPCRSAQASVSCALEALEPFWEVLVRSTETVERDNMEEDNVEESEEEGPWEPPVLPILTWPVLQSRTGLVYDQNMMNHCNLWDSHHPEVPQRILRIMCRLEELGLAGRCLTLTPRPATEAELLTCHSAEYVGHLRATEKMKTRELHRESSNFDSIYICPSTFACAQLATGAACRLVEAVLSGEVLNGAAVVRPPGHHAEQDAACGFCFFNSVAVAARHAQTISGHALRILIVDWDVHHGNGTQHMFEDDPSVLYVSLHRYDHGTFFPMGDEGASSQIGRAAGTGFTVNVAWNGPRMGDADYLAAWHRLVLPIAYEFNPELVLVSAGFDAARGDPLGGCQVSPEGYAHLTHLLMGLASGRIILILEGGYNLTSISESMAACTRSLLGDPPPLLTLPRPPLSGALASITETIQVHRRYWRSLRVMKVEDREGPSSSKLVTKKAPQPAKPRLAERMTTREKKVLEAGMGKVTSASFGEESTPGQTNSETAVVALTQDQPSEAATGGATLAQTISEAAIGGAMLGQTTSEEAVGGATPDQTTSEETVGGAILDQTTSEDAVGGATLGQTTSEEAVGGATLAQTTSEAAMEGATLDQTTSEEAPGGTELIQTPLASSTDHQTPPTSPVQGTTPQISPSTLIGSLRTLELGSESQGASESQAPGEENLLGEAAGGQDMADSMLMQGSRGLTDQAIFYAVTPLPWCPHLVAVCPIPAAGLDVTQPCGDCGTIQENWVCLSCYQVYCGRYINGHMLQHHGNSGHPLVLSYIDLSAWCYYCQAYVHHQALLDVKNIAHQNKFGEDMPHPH

[1] = DPPH radical scavenging activity; details: Trolox equivalent; compounds and Trolox 100 µM
Source text: (§1) DPPH is a stable chromogen radical, which is widely used to assess the antioxidant activity of biological objects, in particular when searching for potential therapeutic agents used to maintain the redox balance in the body and treat pathologies associated with the action of free radicals. In turn, the oxygen radical absorbance capacity (ORAC) analysis is based on the removal by potential antioxidants of peroxyl radicals generated by AAPH (2,2’-axobis-2-methyl-propanimidamide, dihydrochloride), preventing the degradation of the fluorescein probe.
The measurement of the antiradical activity of synthesized hydroxamic acids was carried out using the method described in [150]. The studied compounds were introduced into the wells of a 96-well black tablet (the final concentration was 100 microns), after which a freshly prepared solution of 2,2-diphenyl-1-picrylhydrazyl (Sigma Aldrich, St. Louis, Missouri, USA) was added. After the incubation time had elapsed, the DPPH radical-scavenging activity was measured using a multifunctional Cytation™3 tablet analyzer (BioTek Instruments, Inc., Winooski, VT, USA) at λ = 517 nm by the difference in the reduction of the DPPH radical peak between control samples containing an equivalent volume of solvent and samples with the substances under study.

[2] = Oxygen radical absorbance capacity (ORAC); details: Trolox equivalent; compounds and Trolox 100 µM, AAPH 12 mM
Source text: as §1
The analysis of the absorption capacity of oxygen radicals was performed as described in [151], with some modifications. Trolox (Sigma Aldrich, St. Louis, MI, USA) was used as a standard antioxidant. The studied compounds were introduced into the holes of a 96-hole black tablet with a transparent bottom with Trolox (25 µL; the final concentration was 100 µM) and fluorescein (150 µL; the final concentration was 80 nM, Sigma Aldrich, St. Louis, MI, USA). The resulting mixture was shaken and incubated for 30 min at 37 °C. After a 30-min incubation period, a solution of 2,2’-azobis (2-amidinopropane) dihydrochloride (AAPH) (25 µL; final concentration of 12 mM, Sigma Aldrich, St. Louis, MI, USA) was quickly introduced into all wells of the tablet. The tablet was immediately placed in a multifunctional tablet analyzer Cytation™ 3 (BioTek Instruments, Inc., Winooski, VT, USA). The fluorescence intensity was recorded for 300 min at λex = 480 nm, λem = 520 nm with an interval of every 5 min. In the same experiment, calibration solutions for the reference antioxidant Trolox were used to confirm the validity of the use of this method (0, 6.25, 12.5, 25, 50 and 100 µM).

Cell viability, MTT test = format: cell-based; details: human, SH-SY5Y neuroblastoma cells, 24-h exposure, read-out: IC50 cytotoxic action
Experimental: The culture of human neuroblastoma cells (defined as SH-SY5Y) was cultured in DMEM with the addition of embryonic bovine serum (10%), 2 mM glutamine (DiaM, Moscow, Russia) and penicillin-streptomycin (100 U/Ml–100 µg/mL, PanEco, Moscow, Russia) in conditions of 5% CO2 in the air at 37 °C. Upon reaching 80% confluence, cells in the amount of 1 × 10^4 were placed in 96-well transparent plates and incubated under the same conditions for 24 h. After the incubation time, the cells were exposed to a 24-h exposure to various concentrations of hydroxamic acids dissolved in dimethyl sulfoxide (range from 1 to 100 µM). An equivalent volume of solvent was used as a control (final DMSO content = 1%).
Cell survival analysis was performed using MTT test. To do this, 3-(4,5-dimethylthiazol-2-yl)-2,5-diphenyltetrazolium bromide (MTT, 5 mg/mL, DiaM, Moscow, Russia) was introduced into all wells and incubated at 37 °C for 2 h to restore metabolically active cells of the yellow tetrazolium salt MTT to purple formazane crystals. The resulting formazane was then re-suspended in 200 µL DMSO per well. The optical density was recorded using a multifunctional Cytation™3 flatbed analyzer (BioTek Instruments, Inc., Winooski, VT, USA) at λ = 530 nm.

[3] = biological target: T2, β-amyloid peptide 1-42 (Aβ1-42) (Homo sapiens, UniProt P05067); test: Thioflavin T fluorescent analysis of Aβ1-42 aggregation; format: biochemical; details: 48 h, compounds 100 µM, Thioflavin T 10 µM, 48 h registration; read-out: prevention of the aggregation of Aβ1-42
T2 construct: the pathological form of β-amyloid peptide 1-42 (Sigma Aldrich); purchased Sigma Aldrich
T2 sequence (P05067 672-713 limits assumed): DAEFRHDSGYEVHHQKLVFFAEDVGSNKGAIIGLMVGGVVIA
Source text: The aggregation process of β-amyloid peptide 1-42 (Aβ1-42), caused by hydrophobic interactions of peptide monomers and, as a consequence, the formation of the most toxic polymorphic structure-oligomeric fragments of Aβ, was detected using the fluorescent dye Thioflavin T (Figure 4a). This method is the most widely used for selective staining and the identification of amyloid aggregates, which is confirmed by a large number of works. Fluorescence analysis using Thioflavin T made it possible to monitor the aggregation process of the pathological form of β-amyloid peptide 1-42 (Sigma Aldrich, St. Louis, MI, USA). The experimental protocol was carried out similarly to that described in [58] with some modifications. The registration of changes in the fluorescence of thioflavin T (10 µM, Sigma Aldrich, St. Louis, MI, USA) was performed on a multifunctional tablet analyzer Cytation™3 (BioTek Instruments, Inc., Winooski, VT, USA) at λex = 450 nm, λem = 480 nm. The fluorescence intensity of the solution without Aβ1-42 was subtracted from the fluorescence values of solutions containing protein, due to the need to subtract the background fluorescence.

Structure (SMILES)	IC50 (HDAC6) [µM]	ability to inhibit the enzymatic activity of HDAC6 (HDAC6)	inhibition at 100 µM [3] [%]	melting point [°C]	DPPH value (TE) [1] [TE]	ORAC value (TE) [2] [TE]	IC50 at 24 h (Cell viability, MTT test) [µM]
CC1(C)[C@@H]2CC=C(C(=O)NO)[C@H]1C2 [(+)-19, (1S,5R)-N-Hydroxy-6,6-dimethylbicyclo [3.1.1]hept-2-ene-2-carboxamide]	> 100	no significant ability			0.50	1.02	> 100
CC1=CC[C@H](CC(=O)NO)C1(C)C [(-)-13, (R)-N-Hydroxy-2-(2,2,3-trimethylcyclopent-3-en-1-yl)acetamide]	> 100	no significant ability			0.39	0.93	> 100
CC1(C)[C@H]2CC=C(C(=O)NO)[C@@H]1C2 [(-)-19, (1R,5S)-N-Hydroxy-6,6-dimethylbicyclo [3.1.1]hept-2-ene-2-carboxamide]	> 100	no significant ability			0.15	0.85	> 100
CC(CCCC(C)(C)O)CC(=O)NO (stereo not shown) [Compound 5, N,7-dihydroxy-3,7-dimethyloctanamide]	> 100	no significant ability			0.17	0.88	> 100
CC(C)CCCC(C)CC(=O)NO (stereo not shown) [Compound 8, N-Hydroxy-3,7-dimethyloctanamide]	> 100	no significant ability			0.36	0.83	> 100
CC(C)=CCCC(C)CC(=O)NO (stereo not shown) [Compound 10, N-Hydroxy-3,7-dimethyloct-6-enamide]	> 100	no significant ability			0.19	0.84	> 100

Further lines, with some results ahead:

IC50 (HDAC6) [µM]	ability to inhibit the enzymatic activity of HDAC6 (HDAC6)	inhibition at 100 µM [3] [%]	melting point [°C]	Structure (SMILES)	DPPH value (TE) [1] [TE]	ORAC value (TE) [2] [TE]	IC50 at 24 h (Cell viability, MTT test) [µM]
> 100	no significant ability			CC1=CC[C@@H](CC(=O)NO)C1(C)C [(+)-13, (S)-N-Hydroxy-2-(2,2,3-trimethylcyclopent-3-en-1-yl)acetamide]	0.26	0.94	> 100
87.4 ± 2.33	no significant ability			C=C(C)[C@@H]1CC=C(C(=O)NO)CC1 [Compound 16, (S)-N-Hydroxy-4-(prop-1-en-2-yl)cyclohex-1-enecarboxamide]	0.23	0.87	> 100
0.56 ± 0.01		≤ 40	113.5 to 116	C=C(C)[C@@H]1CC=C(CNC(=O)CCCCCCC(=O)NO)CC1 [Compound 30, (S)-N1-Hydroxy-N8-((4-(prop-1-en-2-yl)cyclohex-1-en-1-yl)methyl)octanediamide]	0.25	0.87	> 100
0.74 ± 0.02		≤ 40	110.8	C=C(C)[C@@H]1CC=C(CNC(=O)CCCCCCCC(=O)NO)CC1 [Compound 31, (S)-N1-hydroxy-N9-((4-(prop-1-en-2-yl)cyclohex-1-en-1-yl)methyl)nonanediamide]	0.30	0.82	89.4 ± 3.92
8.23 ± 0.4		59.9	187.4 to 189.7	CC(C)c1ccc(CNC(=O)/C=C/c2ccc(C(=O)NO)cc2)cc1 [Compound 35b, (E)-N-hydroxy-4-(3-((4-isopropylbenzyl)amino)-3-oxoprop-1-en-1-yl)benzamide]	0.50	1.00	> 100
